#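 Results reflect a 48-hour exposure of cells in 96-well plates to compound at five concentrations. TGI: concentration producing complete growth inhibition.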
# Tests used:
# Assay in all cases: NCI anticancer screen, dose series, 48 h
# [1] = system: T-47D breast
# [2] = system: HL-60(TB) leukemia
# [3] = system: HCC-2998 colon
# [4] = system: SNB-75 CNS
# [5] = system: NCI-H23 lung
# [6] = system: MDA-MB-231 breast
# [7] = system: SF-268 CNS
# [8] = system: LOX IMVI melanoma
# [9] = system: SK-MEL-5 melanoma
# [10] = system: MCF7 breast
# [11] = system: IGROV1 ovarian
# [12] = system: 786-0 renal
# [13] = system: SN12C renal
# [14] = system: SNB-19 CNS
# [15] = system: NCI/ADR-RES ovarian
# [16] = system: HOP-62 NSCLC
# [17] = system: SW-620 colon
# [18] = system: SR leukemia
# [19] = system: UACC-62 melanoma
# [20] = system: CAKI-1 renal
# [21] = system: A498 renal
# [22] = system: HT29 colon
# [23] = system: KM12 colon
# [24] = system: MOLT-4 leukemia
# [25] = system: HCT-116 colon
# [26] = system: U251 CNS
# [27] = system: OVCAR-5 ovarian
# [28] = system: EKVX NSCLC
# [29] = system: SK-MEL-2 melanoma
# [30] = system: OVCAR-3 ovarian
# [31] = system: PC-3 prostate
# [32] = system: RXF 393 renal
# [33] = system: NCI-H226 lung
# [34] = system: MALME-3M melanoma
# [35] = system: SF-295 CNS
# [36] = system: K-562 leukemia
# [37] = system: TK-10 renal
# [38] = system: HS 578T breast
# [39] = system: SK-MEL-28 melanoma
# [40] = system: ACHN renal
# [41] = system: UO-31 renal
# [42] = system: COLO 205 colon
# [43] = system: UACC-257 melanoma
# [44] = system: RPMI-8226 leukemia
# [45] = system: HOP-92 NSCLC
# [46] = system: SK-OV-3 ovarian
# [47] = system: OVCAR-8 ovarian
# [48] = system: MDA-N
# [49] = system: NCI-H460 lung
# [50] = system: DU-145 prostate
# [51] = system: OVCAR-4 ovarian
# [52] = system: M14 melanoma
# [53] = system: CCRF-CEM leukemia
# [54] = system: A549 NSCLC
# [55] = system: NCI-H522 lung
# [56] = system: MDA-MB-435
# [57] = system: SF-539 CNS
# [58] = system: BT-549 breast
# [59] = system: HCT-15 colon
smiles,measurement,setting,value
COCCCNC(=O)C1=C(C)NC(C)=C(C(=O)NCCCOC)C1,TGI,[1],> 100 µM
same,TGI,[2],> 100 µM
same,TGI,[3],> 100 µM
same,TGI,[4],> 100 µM
same,TGI,[5],> 100 µM
same,TGI,[6],> 100 µM
same,TGI,[7],> 100 µM
same,TGI,[8],> 100 µM
same,TGI,[9],> 100 µM
same,TGI,[10],> 100 µM
same,TGI,[11],26.9 µM
same,TGI,[12],> 100 µM
same,TGI,[13],> 100 µM
same,TGI,[14],> 100 µM
same,TGI,[15],> 100 µM
same,TGI,[16],> 100 µM
same,TGI,[17],> 100 µM
same,TGI,[18],> 100 µM
same,TGI,[19],> 100 µM
same,TGI,[20],> 100 µM
same,TGI,[21],> 100 µM
same,TGI,[22],> 100 µM
same,TGI,[23],> 100 µM
same,TGI,[24],> 100 µM
same,TGI,[25],> 100 µM
same,TGI,[26],> 100 µM
same,TGI,[27],> 100 µM
same,TGI,[28],40.5 µM
same,TGI,[29],> 100 µM
same,TGI,[30],> 100 µM
same,TGI,[31],> 100 µM
same,TGI,[32],> 100 µM
same,TGI,[33],> 100 µM
same,TGI,[34],41.2 µM
same,TGI,[35],> 100 µM
same,TGI,[36],> 100 µM
same,TGI,[37],> 100 µM
same,TGI,[38],> 100 µM
same,TGI,[39],> 100 µM
same,TGI,[40],> 100 µM
same,TGI,[41],> 100 µM
same,TGI,[42],> 100 µM
same,TGI,[43],> 100 µM
same,TGI,[44],> 100 µM
same,TGI,[45],> 100 µM
same,TGI,[46],> 100 µM
same,TGI,[47],> 100 µM
same,TGI,[48],> 100 µM
same,TGI,[49],> 100 µM
same,TGI,[50],> 100 µM
same,TGI,[51],> 100 µM
same,TGI,[52],> 100 µM
same,TGI,[53],> 100 µM
same,TGI,[54],> 100 µM
same,TGI,[55],27.4 µM
same,TGI,[56],> 100 µM
same,TGI,[57],> 100 µM
CCN(CC)CCOc1ccccc1/C=C/c1noc2ccccc12,TGI,[1],32.4 µM
same,TGI,[2],40.1 µM
same,TGI,[3],18 µM
same,TGI,[4],22.2 µM
same,TGI,[5],26.9 µM
same,TGI,[6],25.7 µM
same,TGI,[58],29.9 µM
same,TGI,[7],37 µM
same,TGI,[9],16.5 µM
same,TGI,[10],27.9 µM
same,TGI,[11],22.3 µM
same,TGI,[12],26.7 µM
same,TGI,[13],24.6 µM
same,TGI,[14],26.7 µM
same,TGI,[15],38.8 µM
same,TGI,[16],31.3 µM
same,TGI,[17],23 µM
same,TGI,[18],68 µM
same,TGI,[19],22.4 µM
same,TGI,[59],22.4 µM
same,TGI,[20],26.2 µM
same,TGI,[21],31.3 µM
same,TGI,[22],16 µM
same,TGI,[23],31.5 µM
same,TGI,[24],76.7 µM
same,TGI,[25],19.2 µM
same,TGI,[27],25.1 µM
same,TGI,[28],31.9 µM
same,TGI,[29],16.7 µM
same,TGI,[30],38.1 µM
same,TGI,[31],19.8 µM
same,TGI,[32],9.97 µM
same,TGI,[33],30.5 µM
same,TGI,[34],13.9 µM
same,TGI,[35],29.7 µM
same,TGI,[36],> 100 µM
same,TGI,[37],28.7 µM
same,TGI,[38],32.3 µM
same,TGI,[39],21.1 µM
same,TGI,[40],25.9 µM
same,TGI,[41],19.3 µM
same,TGI,[42],24.1 µM
same,TGI,[43],15.3 µM
same,TGI,[46],34.3 µM
same,TGI,[47],24.8 µM
same,TGI,[48],24.1 µM
same,TGI,[49],25.3 µM
same,TGI,[50],29.1 µM
same,TGI,[51],50.7 µM
same,TGI,[52],15.4 µM
same,TGI,[53],81.6 µM
same,TGI,[55],22.2 µM
same,TGI,[57],31.8 µM

# — PubChem BioAssay (NCI)
